Patent US20030003071A1, “Hair growth stimulant” (priority 2000, published 2003)

Assays:
[1] = test system: cultured rat hair follicle epithelial cells; experiment: Cell proliferation test using cultured rat hair follicle epithelial cells (alamar blue); format: cell-based; conditions: object substance concentration 1.0×10^−5% in KBM medium, 2 days culture, negative control 0, positive control (insulin + hydrocortisone) 1
Description: B. Rat Hair Follicle Epithelial Cells
1. Collection of Rat Hair Follicle Epithelial Cells
(1) Collection of Hair Follicles
Dorsal skin was collected from newborn (3˜4-day-old) rats, and this collected dorsal skin was soaked two pieces at a time in PBS (−) containing 1% PSF.
Lower parts such as subcutaneous fat and membranes were then removed from the dermal fat layer using dissecting scissors.
Next, the dorsal skin was again soaked in PBS (−) containing 1% PSF, and was then soaked overnight at 4° C. in PBS (−) containing 0.25% trypsin (also containing 0.02% EDTA; likewise hereinafter). […]
A cell freezing liquid (Cellbanker; made by DAIYATRON) was added to the hair follicle epithelial cells, the concentration was adjusted to 1.5×10^7 cells/ml, 1.5×10^7 cells were put into each freezing tube, and storage was carried out by freezing. The number of cells was calculated using a haemacyto meter. […]

[2] = test system: immortalized outer hair root sheath cells; experiment: Immortalized outer hair root sheath cell proliferation test (cellular DNA, Hoechst 33258); format: cell-based, human; conditions: 10 nM, 1 μM, 100 μM or 10 mM in KBM; 4 days culture; negative control = 100
Procedure: <Immortalized Outer Hair Root Sheath Cell Proliferation Tests>
[Culturing of Immortalized Outer Hair Root Sheath Cells]
Hair follicles were isolated from human scalp skin using scissors under a stereoscopic microscope. The hair follicles were cut off at the lower part of the sebaceous gland, and enzyme treatment was carried out with collagenase and dispase.
The hair bulb was cut off with scissors and excluded, and the hair shaft was separated with tweezers.
The hair shaft was subjected to enzyme treatment with trypsin, and then the reaction was stopped with trypsin inhibitor.
Centrifuging was carried out, the supernatant was thrown away, and the outer hair root sheath cells were recovered. […]
First generation cultured outer hair root sheath cells cultured until the cloning confluence of the cells was about 50% were washed with K-SFM, and then infection was carried out by adding the above-mentioned virus in a quantity of 1, 10 or 30 MOI (multiplicity of infection). […]
The cells were thawed, and were then added to each […], and smashed up with sonication. The cells were then transferred into a cuvette, and the fluorescence intensity was measured at an excitation wavelength of 356 nm and a fluorescence wavelength of 460 nm.

[3] = test system: cultured human hair follicle epithelial cells; experiment: Cell proliferation test using cultured human hair follicle epithelial cells (alamar blue); format: cell-based; conditions: object substance concentration 1.0×10^−5% in KBM medium, 2 days culture, negative control 0, positive control (insulin + hydrocortisone) 1
Procedure: <Cell Proliferation Tests Using Cultured Hair Follicle Epithelial Cells>
A. Human Hair Follicle Epithelial Cells
1. Collection of Human Hair Follicle Epithelial Cells
Hair follicles in the growth period of the hair cycle were collected mechanically under a stereoscopic microscope from male human scalp skin obtained as a by-product from surgery.
The growth period hair follicles were treated for 30 minutes at 37° C. with Dulbecco's modified MEM (DMEM) containing 1000 U/ml dispase and 0.2% collagenase, and the dermal sheath, dermal papilla and hair bulb epithelial tissue were removed using the tip of an injection needle, and then treatment was carried out for 5 minutes at 37° C. with a phosphate buffer solution (PBS(−); ‘(−)’ means not containing calcium ions, magnesium ions etc.) containing 0.05% trypsin and 0.02% EDTA. […]
Next, the cells were suspended in the above-mentioned serum-free medium, sowing was carried out in a collagen-coated (type I) culture dish at a density of 5000 cells/cm^2, medium exchange was carried out every 2 days until the cells became subconfluent, and then treatment was again carried out for 5 minutes at 37° C. with 0.05 wt % trypsin and 0.02% EDTA, the reaction was then stopped with an equivalent of 0.1% trypsin inhibitor, and centrifuging (800×g, 5 minutes) was carried out. […] The number of cells was calculated using a haemacyto meter. […]

## CNCCS(=O)(=O)O [N-methyltaurine]
[1]
  Cell proliferation effect (cell proliferation index): 0.62
[2]
  Immortalized outer hair root sheath cell activation action (extent of cell proliferation, relative DNA amount, FIG. 1): has an immortalized outer hair root sheath cell activation action
[3]
  Cell proliferation effect (cell proliferation index): 0.64
